Counter-ions that a name gives are not always drawn. Like-named read-outs stand apart in the source and are kept apart here.
Assays:
[1] = molecular target: recombinant human GST-Syk (Homo sapiens (Human), UniProt P43405); experiment: Homogeneous Time-Resolved Fluorescence (HTRF) Assay for the Recombinant Human Syk Enzyme; assay type: biochemical; details: recombinant human GST-Syk 5 pM, ATP 25 μM
Procedure: Homogeneous Time-Resolved Fluorescence (HTRF) Assay for the Recombinant Human Syk Enzyme:
A recombinant GST-hSyk fusion protein was used to measure potency of compounds to inhibit human Syk activity. The recombinant human GST-Syk (Carna Biosciences #08-176) (5 pM final concentration) was incubated with various concentrations of the inhibitor diluted in DMSO (0.1% final concentration) for 10 minutes at room temperature in 15 mM Tris-HCl (pH 7.5), 0.01% tween 20, 2 mM DTT in 384 well plate format. To initiate the reaction the biotinylated substrate peptide (250 nM final concentration) that contains the phosphorylation site for Syk was added with magnesium (5 mM final concentration) and ATP (25 μM final concentration). Final volume of the reaction was 10 μL. Phosphorylation of the peptide was allowed to proceed for 45′ at room temperature. To quench the reaction and detect the phosphorylated product, 2 nM of a Europium-anti-phosphotyrosine antibody (Perkin Elmer #AD0161) and 70 nM SA-APC (Perkin-Elmer #CR130-100) were added together in 15 mM Tris pH 7.5, 40 mM EDTA, 0.01% Tween 20. Final volume of the quenching solution was 10 μL. The resulting HTRF signal was measured after 30 minutes on a EnVision (Perkin-Elmer) reader using a time-resolved fluorescence protocol. […] IC50 values are also provided for the following representative compounds: […]

PGD2 = details: intranasal, allergic rhinitis, phase I/II; cited from earlier work
[2] = allergic rhinitis, phase II; cited from earlier work
[3] = 10-dose titration, read-out: rhSyk
[4] = read-out: rhSyk Activity (IC50)

| SMILES | IC50 [1, 3] [nM] | IC50 [1, 4] [nM] | other results |
| --- | --- | --- | --- |
| Cc1cc(Nc2ncc(Cl)c(C)n2)cc(-c2cnc(C(C)(O)C3CCC(C(=O)O)CC3)s2)c1 (centres unmarked) [Example 2-60] | 5 | ≤ 100 |  |
| Cc1cc(Nc2nccc(C(F)(F)F)n2)cc(-c2cnc(C(O)C3CCC4(CC3)OCCO4)s2)c1 (centres unmarked) [Example 22, 1,4-dioxaspiro[4.5]dec-8-yl[5-(3-methyl-5-{[4-(trifluoromethyl)pyrimidin-2-yl]amino}phenyl)-1,3-thiazol-2-yl]methanol] | 197 | 100 to 1000 |  |
| Cc1cc(Nc2nccc(C)n2)cc(-c2cnc(C[C@H]3CC[C@@H](C(=O)O)CC3)s2)c1 (single isomer, unassigned) [Example 13 (cis, faster eluting isomer), cis-4-[(5-{3-methyl-5-[(4-methylpyrimidin-2-yl)amino]phenyl}-1,3-thiazol-2-yl)methyl]cyclohexanecarboxylic acid] |  | ≤ 100 |  |
| Oc1cccc(Nc2ncc(F)c(Nc3cccc(O)c3)n2)c1 [Example R112] |  |  | decrease in PGD2 (PGD2): statistically significant decrease; safety across a range of indicators (PGD2): safe; efficacy versus placebo [2]: lack of efficacy |
| Cc1cc(Nc2nccc(C(F)(F)F)n2)cc(-c2cnc(C(C)(O)[C@H]3CC[C@H](c4nn[nH]n4)CC3)s2)c1 (single isomer, unassigned) [Example 6 (faster eluting enantiomer), 2-{[3-(2-{1-hydroxy-1-[trans-4-(2H-tetrazol-5-yl)cyclohexyl]ethyl}-1,3-thiazol-5-yl)-5-methylphenyl]amino}-4-(trifluoromethyl)pyrimidin-1-ium trifluoroacetate] |  | ≤ 100 |  |
| Cc1cc(Nc2nccc(C(F)(F)F)n2)cc(-c2cnc(C(O)[C@H]3CC[C@H](C(N)=O)CC3)s2)c1 [Example 7 (trans isomer), trans-4-{hydroxy[5-(3-methyl-5-{[4-(trifluoromethyl)pyrimidin-2-yl]amino}phenyl)-1,3-thiazol-2-yl]methyl}cyclohexanecarboxamide] | 35 | ≤ 100 |  |
| CCCCC(=O)OC1CCC(C(C)(O)c2ncc(-c3cc(C)cc(Nc4ncc(F)c(OC)n4)c3)s2)CC1 (centres unmarked) [Example 2-73] | 1460 | 1000 to 10000 |  |
| Cc1cc(Nc2nccc(C)n2)cc(-c2cnc(C[C@]3(O)CC[C@H](C(=O)O)CC3)s2)c1 [5 (trans isomer), trans-4-hydroxy-4-[(5-{3-methyl-5-[(4-methylpyrimidin-2-yl)amino]phenyl}-1,3-thiazol-2-yl)methyl]cyclohexanecarboxylic acid] |  | ≤ 100 |  |
| Cc1cc(Nc2nccc(C(F)(F)F)n2)cc(-c2cnc(C(=O)C3CCC4(CC3)OCCO4)s2)c1 [Example 1-20, 1,4-dioxaspiro[4.5]dec-8-yl[5-(3-methyl-5-{[4-(trifluoromethyl)pyrimidin-2-yl]amino}phenyl)-1,3-thiazol-2-yl]methanone] |  | 100 to 1000 |  |
| CCOC(=O)C1CCC(Cc2ncc(-c3cc(C)cc(Nc4nccc(C)n4)c3)s2)CC1 (centres unmarked) [Example 13, step 2, ethyl 4-[(5-{3-methyl-5-[(4-methylpyrimidin-2-yl)amino]phenyl}-1,3-thiazol-2-yl)methyl]cyclohexanecarboxylate] | 301 | 100 to 1000 |  |

Second part, led by results:

| IC50 [1, 3] [nM] | IC50 [1, 4] [nM] | SMILES | other results |
| --- | --- | --- | --- |
|  | ≤ 100 | Cc1cc(Nc2nccc(C(F)(F)F)n2)cc(-c2cnc(C(C)(O)C3CCC(C)(C(=O)O)CC3)s2)c1 (centres unmarked) [Example 3-5] |  |
| 1 | ≤ 100 | COC(C)(c1ncc(-c2cc(C)cc(Nc3nccc(C(F)(F)F)n3)c2)s1)[C@H]1CC[C@H](C(=O)O)CC1 (some centres unmarked) [Example 2-110] |  |
| 1 | ≤ 100 | C[C@@](O)(c1ncc(-c2cc(F)cc(Nc3nccc(C(F)(F)F)n3)c2)s1)[C@H]1CC[C@H](C(=O)O)CC1 (single isomer, unassigned) [Example 17, trans-4-{(1R or 1S)-1-[5-(3-fluoro-5-{[4-(trifluoromethyl)pyrimidin-2-yl]amino}phenyl)-1,3-thiazol-2-yl]-1-hydroxyethyl}cyclohexanecarboxylic acid] |  |
| 1260 | 1000 to 10000 | CCCCC(=O)OC1CCC(C(C)(O)c2ncc(-c3cc(C)cc(Nc4nccc(C(F)(F)F)n4)c3)s2)CC1 (centres unmarked) [Example 2-3] |  |
|  | ≤ 100 | Cc1cc(Nc2nccc(C(F)(F)F)n2)cc(-c2cnc([C@@](O)(CF)[C@H]3CC[C@H](C(=O)O)CC3)s2)c1 [Example 10] |  |
|  | ≤ 100 | Cc1cc(Nc2nccc(C(F)(F)F)n2)cc(-c2cnc(C(C)(O)C3CCC(C)(C(=O)O)CC3)s2)c1 (single isomer, unassigned) [Example 3 (isomer 3), 4-{1-hydroxy-1-[5-(3-methyl-5-{[4-(trifluoromethyl)pyrimidin-2-yl]amino}phenyl)-1,3-thiazol-2-yl]ethyl}-1-methylcyclohexanecarboxylic acid] |  |
|  | ≤ 100 | Cc1cc(Nc2nccc(C(F)(F)F)n2)cc(-c2cnc(C(C)(O)C3CCC(C(=O)O)C3)s2)c1 (centres unmarked) [Example 3-3] |  |
| 1 | ≤ 100 | Cc1cc(Nc2nccc(C)n2)cc(-c2cnc(C(C)(O)[C@H]3CC[C@H](C(=O)O)CC3)s2)c1 (single isomer, unassigned) [Example 2-52, trans-4-[(1R or S)-hydroxy-1-(5-{3-methyl-5-[(4-methylpyrimidin-2-yl)amino]phenyl}-1,3-thiazol-2-yl)ethyl]cyclohexanecarboxylic acid] |  |
|  | 100 to 1000 | Cc1cc(Nc2nccc(C(F)(F)F)n2)cc(-c2cnc(C(=O)C3CCC(=O)CC3(C)C)s2)c1 (racemic) [Example 11, N-(3-{2-[(2,2-dimethyl-4-oxocyclohexyl)carbonyl]-1,3-thiazol-5-yl}-5-methylphenyl)-4-(trifluoromethyl)pyrimidin-2-aminium trifluoroacetate] |  |
|  | ≤ 100 | Cc1cc(Nc2nccc(C(F)(F)F)n2)cc(-c2cnc([C@@](O)(C3CC3)[C@H]3CC[C@H](C(=O)O)CC3)s2)c1 (single isomer, unassigned) [Example 2 (from Intermediate 28 faster eluting enantiomer), trans-4-{(R or S)-cyclopropyl(hydroxy)[5-(3-methyl-5-{[4-(trifluoromethyl)pyrimidin-2-yl]amino}phenyl)-1,3-thiazol-2-yl]methyl}cyclohexanecarboxylic acid] |  |
| 13 | ≤ 100 | Cc1cc(Nc2nccc(C)n2)cc(-c2cnc(C(C)(O)C3CCC(C(=O)O)CC3)s2)c1 (centres unmarked) [Example 2-53] |  |
| 2 | ≤ 100 | Cc1cc(Nc2nccc(C)n2)cc(-c2cnc(C(O)(C3CCC(C(=O)O)CC3)C(F)(F)F)s2)c1 (centres unmarked) [Example 2-101] |  |

Reference: patent US9290490B2 (Merck Sharp & Dohme Corp., priority 2011, dated 2016)
